# Tested on: not listed separately
# Assay: Experimental lipophilicity by RP-TLC
# Conditions: not given
# Source text: The RP-TLC method was used to determine the experimental lipophilicity according to the literature. Modified silica gel was used as the stationary phase and a mixture of tris(hydroxymethyl)aminomethane (TRIS) (0.2 M, pH = 7.4) with acetone as the mobile phase. […] For this reason, an aprotic solvent such as acetone was chosen as the mobile phase.
# Spots were visualized in iodine vapor.
# The retardation parameter (Rf) was converted to the RM parameter according to Equation (1):(1) RM=log(1/Rf−1)
# The RM parameter was calculated for every concentration of acetone and extrapolated to zero concentration of organic solvent in the mobile phase. The chromatographic parameter of lipophilicity (RM0) was calculated using Equation (2):(2) RM=RM0+bC where C is the concentration of acetone in the mobile phase, while b is the slope of the regression plot.
# In the next step, the relative lipophilicity parameter RM0 was converted to the absolute lipophilicity parameter logPTLC using the calibration curve.
# Lipophilicity correlates with hydrophobicity, which determines the solubility of the compound in water. The hydrophobicity is described by the hydrophobicity index (φ0), which can be calculated according to Equation (4). (4) φ0=−RM0/b
chromatographic logP,logPTLC (experimental lipophilicity),Structure (SMILES)
2.26,–,Cc1ccc2c(n1)C(=O)C(Oc1cccc3ccc(C=O)nc13)=C(Cl)C2=O [Compound 15]
3.3,–,Cc1ccc2c(n1)C(=O)C(Oc1cccc3ccc(Cl)nc13)=C(Cl)C2=O [Compound 16]
–,2.85,Cc1ccc2cccc(OC3=C(Cl)C(=O)c4ccncc4C3=O)c2n1 [Compound 8]
2.55,–,O=C1C(Cl)=C(Oc2cccc3ccc(Cl)nc23)C(=O)c2ncccc21 [Compound 4]
5.06,–,O=C1C(Cl)=C(Oc2cccc3ccc(Cl)nc23)C(=O)c2ccccc21 [Compound 22]
–,1.65,O=C1C(Cl)=C(Oc2cccc3cccnc23)C(=O)c2ncccc21 [Compound 1]
2.72,–,O=Cc1ccc2cccc(OC3=C(Cl)C(=O)c4ccncc4C3=O)c2n1 [Compound 9]
–,2.00,Cc1ccc2c(n1)C(=O)C(Oc1cccc3ccc(C)nc13)=C(Cl)C2=O [Compound 14]
1.75,–,O=Cc1ccc2cccc(OC3=C(Cl)C(=O)c4cccnc4C3=O)c2n1 [Compound 3]
–,1.84,Cc1ccc2cccc(OC3=C(Cl)C(=O)c4cccnc4C3=O)c2n1 [Compound 2]
3.15,–,O=C1C(Cl)=C(Oc2cccc3ccc(N4CCCC4)nc23)C(=O)c2cnccc21 [Compound 11]
3.63,–,O=C1C(Cl)=C(Oc2cccc3ccc(Cl)nc23)C(=O)c2cnccc21 [Compound 10]
4.16,–,O=C1C(Cl)=C(Oc2cccc3ccc(N4CCCC4)nc23)C(=O)c2ccccc21 [Compound 23]
–,2.40,O=C1C(Cl)=C(Oc2cccc3cccnc23)C(=O)c2cnccc21 [Compound 7]
4.61,–,O=Cc1ccc2cccc(OC3=C(Cl)C(=O)c4ccccc4C3=O)c2n1 [Compound 21]
3.68,–,O=C1C(Cl)=C(Oc2cccc3ccc(N4CCOCC4)nc23)C(=O)c2cnccc21 [Compound 12]
–,2.31,Cc1ccc2c(n1)C(=O)C(Oc1cccc3cccnc13)=C(Cl)C2=O [Compound 13]

# The remaining lines, values behind:
Structure (SMILES),chromatographic logP,logPTLC (experimental lipophilicity)
"NC(=O)c1ccccc1 [A, benzamide, reference compound]",0.54,–
Cc1ccc2c(n1)C(=O)C(Oc1cccc3ccc(N4CCCC4)nc13)=C(Cl)C2=O [Compound 17],3.79,–
O=C1C(Cl)=C(Oc2cccc3ccc(N4CCOCC4)nc23)C(=O)c2ccccc21 [Compound 24],4.5,–
O=C1C(Cl)=C(Oc2cccc3ccc(N4CCCC4)nc23)C(=O)c2ncccc21 [Compound 5],2.6,–
"c1ccc2cc3ccccc3cc2c1 [E, anthracene, reference compound]",4.45,–
O=C1C(Cl)=C(Oc2cccc3ccc(N4CCOCC4)nc23)C(=O)c2ncccc21 [Compound 6],2.72,–
Cc1ccc2c(n1)C(=O)C(Oc1cccc3ccc(N4CCOCC4)nc13)=C(Cl)C2=O [Compound 18],2.98,–

# Same assay, conditions: RP-TLC, acetone/TRIS 0.2 M pH 7.4, extrapolated to zero acetone
row,RM0 (chromatographic parameter of lipophilicity),Structure (SMILES)
1,2.05 ± 0.01,Cc1ccc2c(n1)C(=O)C(Oc1cccc3ccc(C=O)nc13)=C(Cl)C2=O [Compound 15]
2,2.96 ± 0.01,Cc1ccc2c(n1)C(=O)C(Oc1cccc3ccc(Cl)nc13)=C(Cl)C2=O [Compound 16]
3,2.55 ± 0.02,O=C1C(Cl)=C(Oc2cccc3ccc(Cl)nc23)C(=O)c2ncccc21 [Compound 4]
4,4.51 ± 0.02,O=C1C(Cl)=C(Oc2cccc3ccc(Cl)nc23)C(=O)c2ccccc21 [Compound 22]
5,2.45 ± 0.02,O=Cc1ccc2cccc(OC3=C(Cl)C(=O)c4ccncc4C3=O)c2n1 [Compound 9]
6,1.60 ± 0.03,O=Cc1ccc2cccc(OC3=C(Cl)C(=O)c4cccnc4C3=O)c2n1 [Compound 3]
7,2.83 ± 0.03,O=C1C(Cl)=C(Oc2cccc3ccc(N4CCCC4)nc23)C(=O)c2cnccc21 [Compound 11]
8,3.25 ± 0.01,O=C1C(Cl)=C(Oc2cccc3ccc(Cl)nc23)C(=O)c2cnccc21 [Compound 10]
9,3.72 ± 0.02,O=C1C(Cl)=C(Oc2cccc3ccc(N4CCCC4)nc23)C(=O)c2ccccc21 [Compound 23]
10,4.11 ± 0.01,O=Cc1ccc2cccc(OC3=C(Cl)C(=O)c4ccccc4C3=O)c2n1 [Compound 21]
11,3.30 ± 0.02,O=C1C(Cl)=C(Oc2cccc3ccc(N4CCOCC4)nc23)C(=O)c2cnccc21 [Compound 12]

# The remaining lines, values behind:
row,Structure (SMILES),RM0 (chromatographic parameter of lipophilicity)
1,"CC(=O)Nc1ccccc1 [B, acetanilide, reference compound]",1.11
2,"Clc1ccc(C(c2ccc(Cl)cc2)C(Cl)(Cl)Cl)cc1 [F, dichlorodiphenyltrichloroethane, reference compound]",5.60
3,"NC(=O)c1ccccc1 [A, benzamide, reference compound]",0.54
4,Cc1ccc2c(n1)C(=O)C(Oc1cccc3ccc(N4CCCC4)nc13)=C(Cl)C2=O [Compound 17],3.39 ± 0.03
5,O=C1C(Cl)=C(Oc2cccc3ccc(N4CCOCC4)nc23)C(=O)c2ccccc21 [Compound 24],4.01 ± 0.01
6,O=C1C(Cl)=C(Oc2cccc3cccnc23)C(=O)c2ccccc21 [Compound 19],2.90 ± 0.02
7,"CC(=O)c1ccc(Br)cc1 [C, 4-bromoacetophenone, reference compound]",2.33
8,Cc1ccc2cccc(OC3=C(Cl)C(=O)c4ccccc4C3=O)c2n1 [Compound 20],3.34 ± 0.01
9,O=C1C(Cl)=C(Oc2cccc3ccc(N4CCCC4)nc23)C(=O)c2ncccc21 [Compound 5],2.35 ± 0.02
10,"c1ccc2cc3ccccc3cc2c1 [E, anthracene, reference compound]",3.97
11,O=C1C(Cl)=C(Oc2cccc3ccc(N4CCOCC4)nc23)C(=O)c2ncccc21 [Compound 6],2.45 ± 0.04
12,Cc1ccc2c(n1)C(=O)C(Oc1cccc3ccc(N4CCOCC4)nc13)=C(Cl)C2=O [Compound 18],2.69 ± 0.03

# Same assay, conditions: from RM0 by calibration curve Equation (3)
row,Structure (SMILES),logPTLC (experimental lipophilicity)
1,"CC(=O)Nc1ccccc1 [B, acetanilide, reference compound]",1.19
2,"Clc1ccc(C(c2ccc(Cl)cc2)C(Cl)(Cl)Cl)cc1 [F, dichlorodiphenyltrichloroethane, reference compound]",6.31
3,O=C1C(Cl)=C(Oc2cccc3cccnc23)C(=O)c2ccccc21 [Compound 19],3.23
4,"CC(=O)c1ccc(Br)cc1 [C, 4-bromoacetophenone, reference compound]",2.58
5,Cc1ccc2cccc(OC3=C(Cl)C(=O)c4ccccc4C3=O)c2n1 [Compound 20],3.73

# Same assay, conditions: pH 7.4
row,RM0 (chromatographic parameter of lipophilicity),Structure (SMILES)
1,2.56 ± 0.02,Cc1ccc2cccc(OC3=C(Cl)C(=O)c4ccncc4C3=O)c2n1 [Compound 8]
2,1.51 ± 0.02,O=C1C(Cl)=C(Oc2cccc3cccnc23)C(=O)c2ncccc21 [Compound 1]
3,1.82 ± 0.02,Cc1ccc2c(n1)C(=O)C(Oc1cccc3ccc(C)nc13)=C(Cl)C2=O [Compound 14]
4,1.68 ± 0.03,Cc1ccc2cccc(OC3=C(Cl)C(=O)c4cccnc4C3=O)c2n1 [Compound 2]
5,2.17 ± 0.01,O=C1C(Cl)=C(Oc2cccc3cccnc23)C(=O)c2cnccc21 [Compound 7]
6,2.09 ± 0.02,Cc1ccc2c(n1)C(=O)C(Oc1cccc3cccnc13)=C(Cl)C2=O [Compound 13]

# Same assay, conditions: φ0 = −RM0/b
row,φ0 (hydrophobicity index),Structure (SMILES)
1,71.78,Cc1ccc2c(n1)C(=O)C(Oc1cccc3ccc(C=O)nc13)=C(Cl)C2=O [Compound 15]
2,69.66,Cc1ccc2c(n1)C(=O)C(Oc1cccc3ccc(Cl)nc13)=C(Cl)C2=O [Compound 16]
3,74.47,Cc1ccc2cccc(OC3=C(Cl)C(=O)c4ccncc4C3=O)c2n1 [Compound 8]
4,65.88,O=C1C(Cl)=C(Oc2cccc3ccc(Cl)nc23)C(=O)c2ncccc21 [Compound 4]
5,76.85,O=C1C(Cl)=C(Oc2cccc3ccc(Cl)nc23)C(=O)c2ccccc21 [Compound 22]
6,72.87,O=C1C(Cl)=C(Oc2cccc3cccnc23)C(=O)c2ncccc21 [Compound 1]
7,73.71,O=Cc1ccc2cccc(OC3=C(Cl)C(=O)c4ccncc4C3=O)c2n1 [Compound 9]
8,69.97,Cc1ccc2c(n1)C(=O)C(Oc1cccc3ccc(C)nc13)=C(Cl)C2=O [Compound 14]
9,68.09,O=Cc1ccc2cccc(OC3=C(Cl)C(=O)c4cccnc4C3=O)c2n1 [Compound 3]
10,68.99,Cc1ccc2cccc(OC3=C(Cl)C(=O)c4cccnc4C3=O)c2n1 [Compound 2]
11,74.76,O=C1C(Cl)=C(Oc2cccc3ccc(N4CCCC4)nc23)C(=O)c2cnccc21 [Compound 11]
12,78.21,O=C1C(Cl)=C(Oc2cccc3ccc(Cl)nc23)C(=O)c2cnccc21 [Compound 10]
13,81.13,O=C1C(Cl)=C(Oc2cccc3ccc(N4CCCC4)nc23)C(=O)c2ccccc21 [Compound 23]
14,72.57,O=C1C(Cl)=C(Oc2cccc3cccnc23)C(=O)c2cnccc21 [Compound 7]
15,80.01,O=Cc1ccc2cccc(OC3=C(Cl)C(=O)c4ccccc4C3=O)c2n1 [Compound 21]
16,72.22,O=C1C(Cl)=C(Oc2cccc3ccc(N4CCOCC4)nc23)C(=O)c2cnccc21 [Compound 12]
17,66.07,Cc1ccc2c(n1)C(=O)C(Oc1cccc3cccnc13)=C(Cl)C2=O [Compound 13]

# Further lines, the molecule ahead of its results:
row,Structure (SMILES),φ0 (hydrophobicity index)
1,Cc1ccc2c(n1)C(=O)C(Oc1cccc3ccc(N4CCCC4)nc13)=C(Cl)C2=O [Compound 17],75.30
2,O=C1C(Cl)=C(Oc2cccc3ccc(N4CCOCC4)nc23)C(=O)c2ccccc21 [Compound 24],75.95
3,O=C1C(Cl)=C(Oc2cccc3cccnc23)C(=O)c2ccccc21 [Compound 19],78.79
4,Cc1ccc2cccc(OC3=C(Cl)C(=O)c4ccccc4C3=O)c2n1 [Compound 20],79.55
5,O=C1C(Cl)=C(Oc2cccc3ccc(N4CCCC4)nc23)C(=O)c2ncccc21 [Compound 5],74.53
6,O=C1C(Cl)=C(Oc2cccc3ccc(N4CCOCC4)nc23)C(=O)c2ncccc21 [Compound 6],66.81
7,Cc1ccc2c(n1)C(=O)C(Oc1cccc3ccc(N4CCOCC4)nc13)=C(Cl)C2=O [Compound 18],68.95

# Tested on: NAD(P)H quinone dehydrogenase 1 (NQO1)
# Assay: not given
# Conditions: cited from earlier work
row,Structure (SMILES),logNQO1 (enzymatic conversion rate of NQO1)
1,Cc1ccc2c(n1)C(=O)C(Oc1cccc3ccc(C=O)nc13)=C(Cl)C2=O [Compound 15],2.672
2,Cc1ccc2c(n1)C(=O)C(Oc1cccc3ccc(Cl)nc13)=C(Cl)C2=O [Compound 16],2.949
3,Cc1ccc2c(n1)C(=O)C(Oc1cccc3ccc(N4CCCC4)nc13)=C(Cl)C2=O [Compound 17],2.778
4,Cc1ccc2cccc(OC3=C(Cl)C(=O)c4ccncc4C3=O)c2n1 [Compound 8],3.058
5,O=C1C(Cl)=C(Oc2cccc3ccc(Cl)nc23)C(=O)c2ncccc21 [Compound 4],2.903
6,O=C1C(Cl)=C(Oc2cccc3ccc(Cl)nc23)C(=O)c2ccccc21 [Compound 22],3.000
7,O=C1C(Cl)=C(Oc2cccc3ccc(N4CCOCC4)nc23)C(=O)c2ccccc21 [Compound 24],1.940
8,O=C1C(Cl)=C(Oc2cccc3cccnc23)C(=O)c2ncccc21 [Compound 1],3.146
9,O=Cc1ccc2cccc(OC3=C(Cl)C(=O)c4ccncc4C3=O)c2n1 [Compound 9],2.502
10,Cc1ccc2c(n1)C(=O)C(Oc1cccc3ccc(C)nc13)=C(Cl)C2=O [Compound 14],3.157
11,O=Cc1ccc2cccc(OC3=C(Cl)C(=O)c4cccnc4C3=O)c2n1 [Compound 3],3.041
12,Cc1ccc2cccc(OC3=C(Cl)C(=O)c4cccnc4C3=O)c2n1 [Compound 2],3.112
13,O=C1C(Cl)=C(Oc2cccc3cccnc23)C(=O)c2ccccc21 [Compound 19],3.108
14,Cc1ccc2cccc(OC3=C(Cl)C(=O)c4ccccc4C3=O)c2n1 [Compound 20],3.100
15,O=C1C(Cl)=C(Oc2cccc3ccc(N4CCCC4)nc23)C(=O)c2cnccc21 [Compound 11],2.330
16,O=C1C(Cl)=C(Oc2cccc3ccc(Cl)nc23)C(=O)c2cnccc21 [Compound 10],2.801
17,O=C1C(Cl)=C(Oc2cccc3ccc(N4CCCC4)nc23)C(=O)c2ncccc21 [Compound 5],3.034
18,O=C1C(Cl)=C(Oc2cccc3ccc(N4CCCC4)nc23)C(=O)c2ccccc21 [Compound 23],2.549
19,O=C1C(Cl)=C(Oc2cccc3cccnc23)C(=O)c2cnccc21 [Compound 7],3.083
20,O=Cc1ccc2cccc(OC3=C(Cl)C(=O)c4ccccc4C3=O)c2n1 [Compound 21],2.740
21,O=C1C(Cl)=C(Oc2cccc3ccc(N4CCOCC4)nc23)C(=O)c2cnccc21 [Compound 12],2.155
22,O=C1C(Cl)=C(Oc2cccc3ccc(N4CCOCC4)nc23)C(=O)c2ncccc21 [Compound 6],2.053
23,Cc1ccc2c(n1)C(=O)C(Oc1cccc3cccnc13)=C(Cl)C2=O [Compound 13],3.178
24,Cc1ccc2c(n1)C(=O)C(Oc1cccc3ccc(N4CCOCC4)nc13)=C(Cl)C2=O [Compound 18],2.322
